Reference: ChEMBL document CHEMBL1136560, “1,4-Diazepane-2-ones as novel inhibitors of LFA-1” (Bioorg Med Chem Lett, 2003)

Target: Intercellular adhesion molecule (ICAM-1), Integrin alpha-L/beta-2 (Homo sapiens, UniProt P05107+P20701)
Experiment: Inhibition of LFA-1/ICAM-1 interaction in ELISA
Assay type: protein-complex assay

Sequence of Intercellular adhesion molecule (ICAM-1), Integrin alpha-L/beta-2 (P20701 whole entry): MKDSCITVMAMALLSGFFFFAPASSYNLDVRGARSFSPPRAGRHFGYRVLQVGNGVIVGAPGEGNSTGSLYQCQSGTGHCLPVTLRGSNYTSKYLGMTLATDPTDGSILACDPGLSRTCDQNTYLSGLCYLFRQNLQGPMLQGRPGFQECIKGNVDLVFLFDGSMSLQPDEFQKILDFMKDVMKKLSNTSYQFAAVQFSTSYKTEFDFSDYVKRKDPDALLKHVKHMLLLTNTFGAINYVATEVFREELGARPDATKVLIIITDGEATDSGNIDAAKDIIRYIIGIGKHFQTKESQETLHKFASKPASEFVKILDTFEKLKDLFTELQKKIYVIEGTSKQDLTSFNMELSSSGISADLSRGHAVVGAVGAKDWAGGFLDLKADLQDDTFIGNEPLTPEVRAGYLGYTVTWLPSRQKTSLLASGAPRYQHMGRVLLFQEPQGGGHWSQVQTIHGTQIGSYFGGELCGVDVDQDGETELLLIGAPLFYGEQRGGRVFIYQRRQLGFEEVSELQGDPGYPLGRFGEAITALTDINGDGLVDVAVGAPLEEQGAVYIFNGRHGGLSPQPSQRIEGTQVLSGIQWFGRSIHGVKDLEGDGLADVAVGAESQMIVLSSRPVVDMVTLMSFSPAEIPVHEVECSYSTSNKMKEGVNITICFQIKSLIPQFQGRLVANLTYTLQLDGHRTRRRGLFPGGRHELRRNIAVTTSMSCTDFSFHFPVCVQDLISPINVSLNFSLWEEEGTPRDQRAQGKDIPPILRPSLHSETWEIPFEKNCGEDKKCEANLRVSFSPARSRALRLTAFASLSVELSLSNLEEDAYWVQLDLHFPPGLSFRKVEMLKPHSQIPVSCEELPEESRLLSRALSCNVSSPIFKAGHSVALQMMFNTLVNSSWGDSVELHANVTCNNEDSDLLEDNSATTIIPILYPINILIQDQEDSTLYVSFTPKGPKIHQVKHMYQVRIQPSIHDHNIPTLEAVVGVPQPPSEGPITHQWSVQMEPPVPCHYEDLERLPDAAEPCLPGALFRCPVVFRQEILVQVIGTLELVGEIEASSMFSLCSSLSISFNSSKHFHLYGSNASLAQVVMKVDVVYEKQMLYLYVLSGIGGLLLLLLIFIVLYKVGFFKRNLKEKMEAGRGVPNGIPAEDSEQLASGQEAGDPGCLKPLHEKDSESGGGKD
Sequence of Intercellular adhesion molecule (ICAM-1), Integrin alpha-L/beta-2 (P05362 whole entry, further chain): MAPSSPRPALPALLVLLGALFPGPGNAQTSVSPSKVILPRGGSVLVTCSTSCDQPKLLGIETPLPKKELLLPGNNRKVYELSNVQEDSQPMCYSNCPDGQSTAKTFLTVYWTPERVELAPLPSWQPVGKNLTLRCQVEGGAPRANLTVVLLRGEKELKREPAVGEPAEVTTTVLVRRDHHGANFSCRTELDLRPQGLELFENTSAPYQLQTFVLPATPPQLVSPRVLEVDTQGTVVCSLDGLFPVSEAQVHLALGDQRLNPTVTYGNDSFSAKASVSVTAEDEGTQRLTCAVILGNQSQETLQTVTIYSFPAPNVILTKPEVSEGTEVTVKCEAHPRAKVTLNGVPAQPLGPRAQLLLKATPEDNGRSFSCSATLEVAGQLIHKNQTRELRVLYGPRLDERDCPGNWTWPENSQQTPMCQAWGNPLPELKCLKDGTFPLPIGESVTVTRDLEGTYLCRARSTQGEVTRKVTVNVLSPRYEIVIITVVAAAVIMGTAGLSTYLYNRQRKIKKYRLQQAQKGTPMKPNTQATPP
Sequence of Intercellular adhesion molecule (ICAM-1), Integrin alpha-L/beta-2 (P05107 whole entry): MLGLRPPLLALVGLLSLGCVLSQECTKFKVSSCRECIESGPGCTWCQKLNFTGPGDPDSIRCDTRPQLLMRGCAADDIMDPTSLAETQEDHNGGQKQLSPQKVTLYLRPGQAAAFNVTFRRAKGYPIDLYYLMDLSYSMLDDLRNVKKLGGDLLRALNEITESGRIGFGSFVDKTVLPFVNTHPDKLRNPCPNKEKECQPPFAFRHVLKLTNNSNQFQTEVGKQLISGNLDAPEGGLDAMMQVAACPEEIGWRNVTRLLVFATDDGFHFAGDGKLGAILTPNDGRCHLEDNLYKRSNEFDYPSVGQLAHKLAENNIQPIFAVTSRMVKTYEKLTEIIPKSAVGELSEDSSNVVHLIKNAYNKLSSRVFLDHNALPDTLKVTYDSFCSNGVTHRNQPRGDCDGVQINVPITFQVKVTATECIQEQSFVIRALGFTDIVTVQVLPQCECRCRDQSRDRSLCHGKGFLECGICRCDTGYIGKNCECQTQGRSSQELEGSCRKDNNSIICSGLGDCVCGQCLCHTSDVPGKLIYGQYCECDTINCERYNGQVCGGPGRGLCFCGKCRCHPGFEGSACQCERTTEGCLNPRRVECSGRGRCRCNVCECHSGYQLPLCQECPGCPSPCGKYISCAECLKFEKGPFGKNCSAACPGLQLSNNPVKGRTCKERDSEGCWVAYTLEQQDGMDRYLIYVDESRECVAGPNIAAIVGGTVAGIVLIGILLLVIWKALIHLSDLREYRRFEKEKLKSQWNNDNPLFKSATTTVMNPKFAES

Row | IC50 | Structure (SMILES)
1 | 2.6 µM | COC(=O)[C@H](Cc1ccc2ccccc2c1)N1CC[C@@H](C)N(C(=O)Cc2ccc3ncccc3c2)[C@@H](CC(C)C)C1=O
2 | 1.3 µM | CC(C)C[C@H]1C(=O)N([C@@H](Cc2ccc3ccccc3c2)C(N)=O)CC[C@@H](C)N1C(=O)Cc1ccc(Br)cc1
3 | > 20 µM | CC(C)C[C@H]1C(=O)N([C@H](C(N)=O)c2ccc3ccccc3c2)CCC(C)N1C(=O)Cc1ccc2ccccc2c1 (some centres not stated)
4 | 2 µM | CC(C)C[C@H]1C(=O)N([C@@H](Cc2ccc3ccccc3c2)C(N)=O)CC[C@@H](C)N1C(=O)Cc1ccc2ccccc2c1
5 | > 20 µM | CC(C)C[C@H]1C(=O)N([C@@H](Cc2ccc3ccccc3c2)C(=O)O)CC[C@@H](C)N1C(=O)Cc1ccc2ccccc2c1

Row | Structure (SMILES) | IC50
6 | CC(C)C[C@H]1C(=O)N([C@@H](Cc2ccc3ccccc3c2)C(N)=O)CC[C@@H](C)N1C(=O)Cc1ccncc1 | 0.97 µM
7 | CC(C)C[C@H]1C(=O)N([C@@H](Cc2ccc3ccccc3c2)C(N)=O)CC[C@@H](C)N1C(=O)Cc1ccccc1 | 0.75 µM
